This note sets out measurements from ChEMBL document CHEMBL1149948, “Chemical and enzymatic synthesis of high-affinity selectin ligands” (Bioorg Med Chem Lett, 1997).

Assay [1] deals with T1, P-selectin (Homo sapiens, UniProt P16109).
T1 sequence (P16109 whole entry): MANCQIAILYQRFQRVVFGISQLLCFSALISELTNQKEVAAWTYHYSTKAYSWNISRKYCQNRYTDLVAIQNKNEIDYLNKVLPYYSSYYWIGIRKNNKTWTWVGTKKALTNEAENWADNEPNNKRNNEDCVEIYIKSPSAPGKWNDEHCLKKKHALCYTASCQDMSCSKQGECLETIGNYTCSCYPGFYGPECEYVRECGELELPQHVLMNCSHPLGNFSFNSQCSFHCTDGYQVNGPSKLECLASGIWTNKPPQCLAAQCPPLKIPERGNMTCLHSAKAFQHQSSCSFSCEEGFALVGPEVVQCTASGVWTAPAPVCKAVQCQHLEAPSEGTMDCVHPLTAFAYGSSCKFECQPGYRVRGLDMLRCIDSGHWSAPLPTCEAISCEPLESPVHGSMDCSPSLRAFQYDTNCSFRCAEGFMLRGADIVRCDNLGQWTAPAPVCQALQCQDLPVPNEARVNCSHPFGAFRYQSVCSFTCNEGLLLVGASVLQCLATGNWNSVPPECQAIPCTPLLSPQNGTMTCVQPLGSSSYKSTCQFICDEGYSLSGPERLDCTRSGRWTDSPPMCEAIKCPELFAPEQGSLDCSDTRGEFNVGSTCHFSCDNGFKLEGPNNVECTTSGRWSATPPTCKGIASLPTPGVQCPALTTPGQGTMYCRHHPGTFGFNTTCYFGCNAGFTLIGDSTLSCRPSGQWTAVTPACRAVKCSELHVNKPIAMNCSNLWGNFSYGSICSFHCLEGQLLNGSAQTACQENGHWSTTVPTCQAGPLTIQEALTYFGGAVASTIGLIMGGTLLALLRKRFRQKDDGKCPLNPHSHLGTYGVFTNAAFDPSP
As to the kind of experiment: Tested for its ability to inhibit HL60 cell adhesion to P-selectin-IgG fusion proteins. In kind it is cell-based, HL-60.

Assay [2] concerns the target T2, E-selectin (Homo sapiens, UniProt P16581).
T2 sequence (P16581 whole entry): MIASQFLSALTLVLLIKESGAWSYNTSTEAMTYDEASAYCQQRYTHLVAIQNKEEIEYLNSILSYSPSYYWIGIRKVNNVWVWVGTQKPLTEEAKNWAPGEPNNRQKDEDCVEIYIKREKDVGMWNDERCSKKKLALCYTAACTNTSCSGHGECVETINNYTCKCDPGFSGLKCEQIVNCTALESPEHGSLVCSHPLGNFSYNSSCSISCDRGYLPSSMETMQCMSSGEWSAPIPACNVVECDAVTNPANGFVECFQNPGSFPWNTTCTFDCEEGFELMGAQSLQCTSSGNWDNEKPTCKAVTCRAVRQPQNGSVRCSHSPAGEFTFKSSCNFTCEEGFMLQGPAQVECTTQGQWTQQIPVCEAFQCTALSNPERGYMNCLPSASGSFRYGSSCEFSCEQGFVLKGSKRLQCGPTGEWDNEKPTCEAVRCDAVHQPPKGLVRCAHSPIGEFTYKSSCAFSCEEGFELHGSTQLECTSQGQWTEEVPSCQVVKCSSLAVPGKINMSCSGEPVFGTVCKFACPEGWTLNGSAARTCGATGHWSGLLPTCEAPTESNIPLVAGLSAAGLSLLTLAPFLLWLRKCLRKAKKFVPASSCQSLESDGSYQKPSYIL
As to the kind of experiment: Tested for its ability to inhibit HL60 cell adhesion to Selectin E IgG fusion proteins. The assay is classed as cell-based, HL-60.

In turn, `CC(=O)N[C@@H]1[C@H](OCCCCCCN)O[C@@H](CO)[C@@H](O[C@@H]2O[C@@H](CO)[C@H](O)[C@H](O[C@]3(C(=O)O)C[C@@H](O)[C@@H](NC(C)=O)[C@H]([C@H](O)[C@H](O)CO)O3)[C@@H]2O)[C@@H]1O[C@@H]1O[C@@H](C)[C@@H](O)[C@H](O)[C@@H]1O` registered a half-maximal inhibitory concentration (IC50) in assay [1] (hl-60) of 2000 µM.

Consider `CC(=O)N[C@@H]1[C@H](OCCCCCCN)O[C@@H](CO)[C@@H](O[C@@H]2O[C@@H](CO)[C@H](O)[C@H](O[C@]3(C(=O)O)C[C@@H](O)C[C@H]([C@H](O)[C@H](O)CO)O3)[C@@H]2O)[C@@H]1O[C@@H]1O[C@@H](C)[C@@H](O)[C@H](O)[C@@H]1O`, for which the IC50 in assay [2] and in assay [1] was 700 µM each time.

In the case of `CC(=O)N[C@@H]1[C@H](OCCCCCCN)O[C@@H](CO)[C@@H](O[C@@H]2O[C@@H](CO)[C@H](O)[C@H](O[C@]3(C(=O)O)C[C@@H](O)[C@@H](N)[C@H]([C@H](O)[C@H](O)CO)O3)[C@@H]2O)[C@@H]1O[C@@H]1O[C@@H](C)[C@@H](O)[C@H](O)[C@@H]1O`, the IC50 was determined as 900 µM in assay [2] and 1000 µM in assay [1].

For `C[C@@H]1O[C@@H](O[C@@H]2[C@H](N)[C@H](OCCCCCCN)O[C@@H](CO)[C@H]2O[C@@H]2O[C@@H](CO)[C@H](O)[C@H](O[C@]3(C(=O)O)C[C@@H](O)[C@@H](N)[C@H]([C@H](O)[C@H](O)CO)O3)[C@@H]2O)[C@@H](O)[C@@H](O)[C@@H]1O`, the IC50 in assay [2] turned out to be 270 µM; in assay [1] it was 160 µM.

For orientation: IC50 means the concentration at which inhibition is half-maximal. Lower therefore signals greater potency.
